Read-outs that look alike come from different tables or passages of the source.
Experiments:
[1] = ingredient added at 1 mass % based on total mass of paint
Procedure: Zinc chloride, zinc formate and zinc acetate were added to the acrylic paint formulation.

Alternaria alternata = assay: Minimum Inhibitory Concentration (MIC) by spiral plater / spiral gradient endpoint against Alternaria alternata; assay type: cell-based
Procedure: (§1) Synergistic Index=Qa/QA+Qb/QB [Equation No. 1] • where Qa=the quantity of component A used in a binary mixture that gives the desired effect • QA=the quantity of component A which when used alone gives the desired effect • Qb=the quantity of component B used in a binary mixture that gives the desired effect • QB=the quantity of component B which when used alone gives the desired effect
(§2) Minimum Inhibitory Concentration (“MIC”) for each of the antimicrobial compositions was determined against a test microbe, which in this case was a spore suspension of the fungus Alternaria alternata, with the aid of an Autoplate 4000 spiral plater that is commercially available from Spiral Biotech, Inc., Norwood, Mass., and its accompanying spiral gradient endpoint software (hereinafter referred to as “the SGE software”). The spiral plater automates the normal serial dilution method for determining MICs. Although the details of the SGE software are held confidentially by Spiral Biotech, Inc., they are believed to consistent with the principles set forth in “Measurement of MICs of antibacterial agents by spiral gradient endpoint compared with conventional dilution method” J. H. Paton, H. A. Holt, and M. J. Bywater—Int. J. Exp. Clin. Chemother, 1990.
Spore suspensions for the test microbe were prepared by growing Alternaria alternata on a Difco malt agar slant in an incubator for 1 week at 28° C. Spores were loosened by adding a small amount of buffer solution at pH 7.0 and scraping with a sterile nichrome wire loop. This process was repeated twice. The buffer solution included phosphate buffer and magnesium chloride, and was obtained commercially from Thomas Scientific Company, as Lot #023-0703.
Loosened spores were removed from the slant by aseptically pouring them into a sterile bottle containing 30 ml of the buffer solution and a volume of approximately 40 ml of 6 mm diameter borosilicate glass beads. The bead bottle was shaken to disperse the spores and adjusted to a final liquid volume of 50 ml. For use as a test inoculum, spore density was adjusted in distilled water blanks to that of a 0.5 McFarland nephelometer standard.
(§3) The spiral plater automatically applied 54.3 micro-liters of each antimicrobial composition of interest to the surface of 150 millimeter malt agar plates using an exponential application gradient. The concentration of the antimicrobial concentration was greatest near the center of the Petri plates and decreased toward the edges. Antimicrobial composition gradients were allowed to air dry at room temperature for 1 to 4 hours at 23° C. before inoculation with test microbe. Spiral gradient plates were inoculated by streaking with cotton swabs that had been soaked in test microbe spore suspension. Streaks were applied in a radial pattern, using a paper template generated by the SGE software to guide the application. Eight radii were inoculated per Petri plate. Each radius is considered as one replicated observation.
(§4) Inoculated spiral gradient plates were incubated for 48 hours in an incubator at 28° C. Visible growth of the test microbe developed along the radial streaks and ended where the concentration of the antimicrobial composition was sufficient to prevent growth. This growth endpoint value (expressed in mm as measured from center point of the Petri plate) was used to calculate MIC for the mixture, expressed as parts per million.
Utilizing the procedure described above in Example 1, Minimum Inhibitory Concentration (“MIC”) for each of the antimicrobial compositions was determined against a test microbe, which in this case was a spore suspension of the […] Alternaria alternata.

Klebsiella pneumoniae = assay: Minimum Inhibitory Concentration (MIC) by spiral plater / spiral gradient endpoint against Klebsiella pneumoniae; assay type: cell-based; conditions: quantity of calcium ethylhexanoate used alone that gives the desired effect
Procedure: as §1
(§5) Minimum Inhibitory Concentration (“MIC”) for each of the antimicrobial compositions was determined against a test microbe, which in this case was a spore suspension of the fungus Alternaria alternata, with the aid of an Autoplate 4000 spiral plater that is commercially available from Spiral Biotech, Inc., Norwood, Mass., and its accompanying spiral gradient endpoint software (hereinafter referred to as “the SGE software”). […]
(§6) Inoculated spiral gradient plates were incubated for 48 hours in an incubator at 28° C. […] This growth endpoint value (expressed in mm as measured from center point of the Petri plate) was used to calculate MIC for the mixture, expressed as parts per million.
Utilizing the procedure described above in Example 1, Minimum Inhibitory Concentration (“MIC”) for each of the antimicrobial compositions was determined against a test microbe, which in this case was a spore suspension of the bacteria Klebsiella pneumoniae. […]

Candida albicans = assay: Minimum Inhibitory Concentration (MIC) by spiral plater / spiral gradient endpoint against Candida albicans; assay type: cell-based; conditions: for MIC (ppm) for Candida albicans: 3 1:3, 4,5 1:1, 6 3:1, 7,8 1:0; for QA: used for SI
Procedure: as §1, §2, §3, §4
Utilizing the procedure described above in Example, Minimum Inhibitory Concentration (“MIC”) for each of the antimicrobial compositions was determined against a test microbe, which in this case was a spore suspension of the yeast Candida albicans., as described above in Example 1. Several antimicrobial compositions containing calcium gluconate, BIT, or both in water were investigated, as shown below in Table 3
Utilizing the procedure described above in Example 1, Minimum Inhibitory Concentration (“MIC”) for each of the antimicrobial compositions was determined against a test microbe, which in this case was a spore suspension of the yeast Candida albicans. Several antimicrobial compositions containing calcium glycerate, BIT, or both in water were investigated, as shown below in Table 11.
Utilizing the procedure described above in Example 1, Minimum Inhibitory Concentration (“MIC”) for antimicrobial compositions was determined against a test microbe, which in this case was a spore suspension of the yeast Candida albicans. Several antimicrobial compositions containing calcium glycerate, BIT, or both in water were investigated, as shown below in Table 23.
Utilizing the procedure described above in Example 1, Minimum Inhibitory Concentration (“MIC”) for each of the antimicrobial compositions was determined against a test microbe, which in this case was a spore suspension of the fungus Candida Albicans.

Saccharomyces cervisiae = assay: Minimum Inhibitory Concentration (MIC) by spiral plater / spiral gradient endpoint against Saccharomyces cervisiae; assay type: cell-based; conditions: aqueous calcium gluconate-BIT compositions; MassCG:MassBIT: Trials 1,2 0:1; 3 1:3; 4,5 1:1; 6 3:1; 7,8 1:0
Procedure: as §1, §5, §6
Utilizing the procedure described above in Example 1, Minimum Inhibitory Concentration (“MIC”) for each of the antimicrobial compositions was determined against a test microbe, which in this case was a spore suspension of the yeast Saccharomyces cervisiae. […]

Pseudomonas aeruginosa = assay: Minimum Inhibitory Concentration (MIC) by spiral plater / spiral gradient endpoint against Pseudomonas aeruginosa; assay type: cell-based; conditions: 3 1:3, 4,5 1:1, 6 3:1, 7,8 1:0
Procedure: as §1, §2, §3, §4
Utilizing the procedure described above in Example 1, Minimum Inhibitory Concentration (“MIC”) for each of the antimicrobial compositions was determined against a test microbe, which in this case was a spore suspension of the bacterium Pseudomonas aeruginosa. Several antimicrobial compositions containing calcium gluconate, BIT, or both in water were investigated, as shown below in Table 7.
Utilizing the procedure described above in Example 1, Minimum Inhibitory Concentration (“MIC”) for each of the antimicrobial compositions was determined against a test microbe, which in this case was a […] Pseudomonas aeruginosa. Several antimicrobial compositions containing calcium glycerate, BIT, or both in water were investigated, as shown below in Table 13.
Utilizing the procedure described above in Example 1, Minimum Inhibitory Concentration (“MIC”) of certain antimicrobial compositions was determined against a test microbe, which in this case was a spore suspension of the bacterium Pseudomonas aeruginosa. Several antimicrobial compositions containing zinc gluconate, BIT, or both in water were investigated, as shown below in Table 19.

Escherichia coli = assay: Minimum Inhibitory Concentration (MIC) by spiral plater / spiral gradient endpoint against Escherichia coli; assay type: cell-based; conditions: MIC of zinc gluconate alone for Escherichia coli (average of Trials 7, 8), used for SI
Procedure: as §1, §2
The spiral plater automatically applied 54.3 micro-liters of each antimicrobial composition of interest to the surface of 150 millimeter malt agar plates using an exponential application gradient. The concentration of the antimicrobial concentration was greatest near the center of the Petri plates and decreased toward the edges. […]
as §6
Utilizing the experimental procedure described above in Example 1, the MIC against Escherichia coli of several antibacterial compositions containing zinc gluconate, BIT, or both in water were determined.

[2] = test system: mixed bacterial inoculum: Pseudomonas aeruginosa (ATCC #10145), Escherichia coli (ATCC #11229), Enterobacter aerogenes (ATCC #13048), Alcaligenes faecalis …; assay: Two-part bacterial challenge of acrylic latex paint samples with a mixed inoculum (performance ratings); assay type: cell-based; design: key to Performance Ratings Week 1, 1 Day / Performance Ratings Week 1, 2 Days / Performance Ratings Week 1, 8 Days / Performance Ratings Week 2, 1 Day / Performance Ratings Week 2, 2 Days / Performance Ratings Week 2, 8 Days: 0: No bacterial growth; 1: Trace of bacterial growth; 2: Light bacterial growth; 3: Moderate bacterial growth; 4: Heavy bacterial growth
Procedure: In order to quantify the antibacterial effectiveness of an antimicrobial composition of interest, samples were prepared by adding various amounts of the antimicrobial composition to identical volumes of a paint that contained no preservatives and was not contaminated by bacteria. In this case, the test sample was a white, aqueous-based, acrylic latex paint. The paint included an acrylic resin, and conventional additives such as surfactant, thickener, defoamer, and titanium oxide.
The samples of the paint were subjected to a two-part challenge procedure and the sample that provided acceptable anti-bacterial protection with the lowest concentration of the antimicrobial composition was identified. Each part of the anti-bacterial challenge consisted of a 7-day test cycle. The parts were performed consecutively over 14 test days.
Challenge testing was accomplished using a mixed bacterial inoculum as the contamination event. These bacteria are Pseudomonas aeruginosa (ATCC #10145), Escherichia coli (ATCC #11229), Enterobacter aerogenes (ATCC #13048), and Alcaligenes faecalis (ATCC #25094). To prepare the test inoculum, each type of bacteria was harvested separately in nutrient broth. Just before use in the challenge test, equal strengths of each bacterial culture were mixed to obtain an inoculum of approximately 10^8 colony forming units per milliliter (cfu/mL).
After incubation, both control blanks and samples containing preservatives of interest were inoculated with the mixed inoculum to a final of 1.0 weight %. […]
Performance ratings of 0, 1, 2, 3 or 4 for each inoculated paint sample were determined by visual inspection of the streak lines, according to the definitions set forth below in Table 25.

Staphylococcus aureus = assay: Minimum Inhibitory Concentration (MIC) by spiral plater / spiral gradient endpoint against Staphylococcus aureus; assay type: cell-based
[3] = aqueous calcium gluconate-BIT compositions, MassCG:MassBIT: Trials 1,2 0:1
[4] = aqueous calcium glycerate-BIT compositions, MassCGLY:MassBIT: Trials 1,2 0:1
[5] = zinc glycerate (without BIT), zinc glycerate-BIT series

## CC(=O)[O-].CC(=O)[O-].[Zn+2] [Zinc acetate]
[1]
  Observation (viscosity of conventional acrylic paint): Paint gelled after mixing for
[1]; listed as zinc acetate
  Observation (viscosity of conventional acrylic paint): caused the paint to gel

## [Cl-].[Cl-].[Zn+2] [Zinc chloride]
[1]
  Observation (viscosity of conventional acrylic paint): Paint gelled immediately
[1]; listed as zinc chloride
  Observation (viscosity of conventional acrylic paint): caused the paint to gel

## O=C[O-].O=C[O-].[Zn+2] [Zinc formate]
[1]
  Observation (viscosity of conventional acrylic paint): Paint gelled immediately
[1]; listed as zinc formate
  Observation (viscosity of conventional acrylic paint): caused the paint to gel

## calcium ethylhexanoate
Alternaria alternata; quantity of calcium ethylhexanoate used alone that gives the desired effect (average of two trials), Alternaria alternata
  QA: 7.5 ppm
Klebsiella pneumoniae
  QA: 7.5 ppm

## calcium gluconate
Candida albicans; [3]
  MIC (ppm) for Candida albicans: > 768 ppm
Saccharomyces cervisiae
  MIC (ppm) for Saccharomyces cervisiae: > 768 ppm
Pseudomonas aeruginosa; [3]
  MIC (ppm) for Pseudomonas aeruginosa: > 1127 ppm
Pseudomonas aeruginosa; aqueous zinc gluconate-BIT compositions, MassZG:MassBIT: Trials 1,2 0:1
  MIC (ppm) for Pseudomonas aeruginosa: > 2300 ppm

## calcium glycerate
Candida albicans; [4]
  MIC (ppm) for Candida albicans: > 768 ppm
Pseudomonas aeruginosa; [4]
  MIC (ppm) for Pseudomonas aeruginosa: > 1230 ppm
Alternaria alternata; aqueous calcium glycerate-BIT compositions, MassCGLY:MassBIT: Trials 1,2 0:1, 3 1:3, 4,5 1:1, 6 3:1, 7,8 1:0
  MIC (ppm) for Alternaria alternata: > 788 ppm

## zinc ethylhexanoate
Candida albicans; MIC of zinc ethylhexanoate alone for Candida albicans
  QA: >780 ppm
Alternaria alternata; MIC of zinc ethylhexanoate alone for Alternaria alternata, used for SI
  QA: >780 ppm
Alternaria alternata; zinc ethylhexanoate (without BIT), average of two trials
  amount required to prevent growth of Alternaria alternata (MIC): > 780 ppm

## zinc gluconate
Escherichia coli
  QA: 565 ppm
[2]; 5000 ppm in acrylic latex paint, Week 1, 1 Day after inoculation
  Performance Ratings Week 1, 1 Day: 4
[2]; 5000 ppm in acrylic latex paint, Week 1, 2 Days after inoculation
  Performance Ratings Week 1, 2 Days: 4
[2]; 5000 ppm in acrylic latex paint, Week 1, 8 Days after inoculation
  Performance Ratings Week 1, 8 Days: 4
[2]; 5000 ppm in acrylic latex paint, Week 2, 1 Day after inoculation
  Performance Ratings Week 2, 1 Day: 4
[2]; 5000 ppm in acrylic latex paint, Week 2, 2 Days after inoculation
  Performance Ratings Week 2, 2 Days: 4
[2]; 5000 ppm in acrylic latex paint, Week 2, 8 Days after inoculation
  Performance Ratings Week 2, 8 Days: 4
[2]; conventional latex paint with 5000 ppm of zinc gluconate added, mixed inoculum, two 7-day cycles
  bacterial stability test: fails

## zinc glycerate
Candida albicans; MIC of zinc glycerate alone for Candida albicans
  QA: >768 ppm
Candida albicans; metal carboxylate without BIT, zinc ethylhexanoate-BIT series (Example 16, Table 31)
  MIC for Candida albicans: > 780 ppm
Candida albicans; [5]
  MIC for Candida albicans: > 768 ppm
Staphylococcus aureus; MIC of zinc glycerate alone for Staphylococcus aureus, used for SI
  QA: >1283 ppm
Staphylococcus aureus; [5]
  MIC for Staphylococcus aureus: > 768 ppm
Alternaria alternata; MIC of zinc glycerate alone for Alternaria alternata, used for SI
  QA: >788 ppm
Alternaria alternata; [5]
  MIC for Alternaria alternata: > 768 ppm

Reference: patent publication US20180332847A1, “ANTIMICROBIAL METAL CARBOXYLATE-BENZISOTHIAZOLINONE MIXTURES” (Troy Corporation, priority 2017, published 2018)
